Experiments:
HSP90α [1] = molecular target: T1, HSP90α (Homo sapiens, UniProt P07900); assay: biochemical; set-up: fluorescence polarisation competition with FITC-labelled geldanamycin on HSP90α N-terminal domain (BPS kit 50293); conditions: read-out: FP IC50
T1 construct: gene HSP90AA1; N-terminal domain
Protocol: The binding affinity for HSP90α was evaluated using a commercially available Hsp90α N-terminal domain assay kit (Catalogue: #50293, BPS Bioscience, CA, USA). According to the manufacturer’s instructions, 5x HSP90 assay buffer (5 μL), 40 mM dithiothreitol (5 μL), 2 mg/mL BSA (5 μL), and H2O (40 μL) were sequentially added to each well. After the addition of diluted FITC-labelled geldanamycin solution (100 nM, 5 μL), compounds at different concentrations (10 μM, 1.0 μM, 0.1 μM, 0.01 μM) were added. The reaction was initiated by the addition of 20 μL of Hsp90α (17 ng/μL). After 2 h of incubation with slow shaking at room temperature, the fluorescent polarisation was measured using Synergy H1 (BioTek Instruments, Inc.). The excitation and emission wavelengths were 485 nm and 530 nm, respectively. IC50 values were calculated based on the signal changes in the FP competition assay. The experiments were performed in triplicate. To further verify the binding of the synthesised compounds to the HSP90 N-terminus, the binding affinity of five typical compounds (16j, 16l, 16m, 22k, and 22l) was evaluated using an FP assay. The addition of compounds with HSP90 inhibitory capacity into the assay would compete with the fluorescence probe for binding into HSP90, resulting in a decrease in FP in comparison with the probe alone.

HSP90α [2] = molecular target: T1, HSP90α; assay: fluorescence polarisation competition with FITC-geldanamycin (BPS kit #[…]); type: binding

Row | SMILES | IC50 (HSP90α [1]) [nM] | IC50 (HSP90α [2]) [nM]
1 | Cc1ccc(-c2cn(Cc3ccccc3)c(-c3ccc(Cl)cc3)n2)cc1 [16j, 1-Benzyl-2–(4-chlorophenyl)-4-(p-tolyl)-1H-imidazole] | 610 ± 30 | –
2 | Clc1ccc(-c2cn(Cc3ccccc3)c(-c3ccc(Cl)cc3)n2)cc1 [16l, 1-Benzyl-2,4-bis(4-chlorophenyl)-1H-imidazole] | 570 ± 60 | –
3 | Clc1ccc(-c2nc(-c3cccc(Cl)c3)cn2Cc2ccccc2)cc1 [16m, 1-Benzyl-4–(3-chlorophenyl)-2–(4-chlorophenyl)-1H-imidazole] | 620 ± 110 | –
4 | Oc1ccc(-c2cnc(OCc3ccccc3)nc2OCc2ccccc2)cc1 [22k, 4–(2,4-Bis(benzyloxy)pyrimidin-5-yl)phenol] | – | 210 ± 30
5 | Oc1cccc(-c2cnc(OCc3ccccc3)nc2OCc2ccccc2)c1 [22l, 3–(2,4-Bis(benzyloxy)pyrimidin-5-yl)phenol] | 580 ± 110 | –

— PMC9518286, “Design, synthesis, biological evaluation and molecular docking study of 2,4-diarylimidazoles and 2,4-bis(benzyloxy)-5-arylpyrimidines as novel HSP90 N-terminal inhibitors” (Journal of Enzyme Inhibition and Medicinal Chemistry, 2022)
